PMC12368479, “Inhibition of the Clathrin Terminal Domain—Amphiphysin Protein–Protein Interaction. Probing the Pitstop 2 Aromatic Moiety” (Chemmedchem, 2025)
Read-outs that look alike come from different tables or passages of the source.

What was measured:
[1] = biological target: T1, clathrin heavy chain NTD (amino acids 1–364) – amphiphysin 1 B/C domain protein–protein interaction (NTD‐PPI) (Homo sapiens, UniProt Q00610); assay: ELISA-based clathrin inhibitor binding assay (NTD-PPI); conditions: ELISA; for IC50: read-out: NTD‐PPI IC50
T1 construct: GST‐tagged clathrin heavy chain NTD (amino acids 1–364); made in house
T1 sequence (Q00610 1-364): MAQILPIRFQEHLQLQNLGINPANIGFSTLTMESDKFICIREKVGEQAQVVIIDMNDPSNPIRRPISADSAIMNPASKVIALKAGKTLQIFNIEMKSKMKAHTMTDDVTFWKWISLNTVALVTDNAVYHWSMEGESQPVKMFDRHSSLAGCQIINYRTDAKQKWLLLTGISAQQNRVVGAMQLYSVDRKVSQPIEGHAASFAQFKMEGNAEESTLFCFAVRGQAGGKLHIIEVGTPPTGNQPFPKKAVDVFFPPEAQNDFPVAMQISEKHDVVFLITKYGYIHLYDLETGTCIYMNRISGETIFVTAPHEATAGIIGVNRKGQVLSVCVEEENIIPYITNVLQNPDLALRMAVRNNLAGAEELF
Protocol: The clathrin inhibitor assay was based inhibition of protein–protein interaction (PPI) between clathrin and amphiphysin as described in our previous report.^[ [45], [54] ^] Bacterially expressed recombinant purified His6‐tagged amphiphysin 1 B/C domain (which comprises both the clathrin and the AP‐2 binding sites, amino acids 250‐578^[ [55] ^]) in screening buffer (20 mM HEPES, pH 7.4, 50 mM NaCl, 1 mM DTT, 1 mM PMSF) was added to a 384 well ELISA plate (Corning Maxisorp 3700) and bound to the plastic for 1 h at room temperature. […] Following extensive washes (with 20 mM HEPES, pH 7.4, 50 mM NaCl, 0.05% Tween 20), chemical compounds diluted in DMSO (10 μL) were added and incubated together with bacterially expressed recombinant GST‐tagged clathrin heavy chain NTD (amino acids 1–364) for 1 h at room temperature in screening buffer. After 3 washes, horseradish peroxidase‐coupled anti‐GST antibodies were added in screening buffer and the plate incubated for 40 min at room temperature. Following additional washes, 50 μL TMB (3,3′,5,5′‐tetramethylbenzidine) (Pierce Biotechnology) chromogenic substrate of horseradish peroxidase was added, and the plate was incubated for 10 min before the reaction was terminated by adding 50 μL 1N sulfuric acid to produce a yellow colour. The amount of bound protein was determined by spectrophotometric measurement in a plate reader. Relative binding was calculated as a percentage of DMSO control.

[2] = biological target: T2, full length human Dynamin I (Homo sapiens, UniProt Q05193); assay: Dynamin GTPase activity, Malachite Green phosphate detection assay; assay type: biochemical
T2 construct: full length human Dynamin I expressed in Sf21 insect cells; made in house; host or cells: Sf21 insect cells
T2 sequence (Q05193 1-864): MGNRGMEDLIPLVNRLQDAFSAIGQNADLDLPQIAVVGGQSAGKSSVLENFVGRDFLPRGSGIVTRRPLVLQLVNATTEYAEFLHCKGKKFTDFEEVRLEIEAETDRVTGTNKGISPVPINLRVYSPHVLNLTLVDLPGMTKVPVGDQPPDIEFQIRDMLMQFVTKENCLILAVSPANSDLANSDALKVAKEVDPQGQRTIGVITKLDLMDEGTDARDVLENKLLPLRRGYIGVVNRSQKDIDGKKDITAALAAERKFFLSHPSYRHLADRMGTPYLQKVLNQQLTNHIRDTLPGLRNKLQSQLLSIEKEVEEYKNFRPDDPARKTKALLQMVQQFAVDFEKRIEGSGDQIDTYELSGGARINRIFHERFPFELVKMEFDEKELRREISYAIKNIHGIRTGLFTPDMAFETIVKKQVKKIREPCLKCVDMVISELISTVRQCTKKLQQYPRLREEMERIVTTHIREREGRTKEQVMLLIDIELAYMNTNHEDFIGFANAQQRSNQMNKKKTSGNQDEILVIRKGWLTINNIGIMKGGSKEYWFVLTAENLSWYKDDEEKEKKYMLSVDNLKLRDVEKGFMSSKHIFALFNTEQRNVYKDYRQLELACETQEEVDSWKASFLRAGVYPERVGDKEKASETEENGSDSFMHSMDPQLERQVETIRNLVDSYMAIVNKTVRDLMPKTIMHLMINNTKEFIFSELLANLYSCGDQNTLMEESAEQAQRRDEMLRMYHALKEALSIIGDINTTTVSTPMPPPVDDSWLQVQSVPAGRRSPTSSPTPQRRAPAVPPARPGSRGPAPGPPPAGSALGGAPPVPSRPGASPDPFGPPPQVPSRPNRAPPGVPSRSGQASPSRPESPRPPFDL
Protocol: Dynamin GTPase activity was determined in vitro using the Malachite Green phosphate detection absorbance‐based assay within a 96‐well plate format as described previously. The enzyme source was full length human Dynamin I expressed in Sf21 insect cells and affinity‐purified on GST‐Amph2‐SH3 (rat Amphiphysin 2 (494–588)).^[ [56] ^]

[3] = Table 1, library 1, average of duplicate measurements (n=2)
[4] = Table 1, library 1, n = 1 unless noted (19: n = 2), '–' = not active at 150 μM, read-out: Dyn 1 IC50
[5] = values quoted in running text (section 2.2), read-out: Dynamin IC50
[6] = Table 2, library 2, average of duplicate measurements (n=2)
[7] = Table 2, library 2, n = 3, triplicate, '–' = not active at 100 μM, read-out: Dyn 1 IC50
[8] = Table 3, library 3, average of duplicate measurements (n = 2)

| Compound | IC50 [2, 4] [µM] | IC50 [2, 7] [µM] | other results |
| --- | --- | --- | --- |
| O=C1N=C(NS(=O)(=O)c2cccc3ccccc23)S/C1=C\c1ccccc1O [compound 8, (Z)‐N‐(5‐(2‐hydroxybenzylidene)‐4‐oxo‐4,5‐dihydrothiazol‐2‐yl)naphthalene‐1‐sulfonamide] | > 150 |  | IC50 [1, 3]: 2.1 µM |
| O=C1N=C(NS(=O)(=O)c2cccc3ccccc23)SC1=Cc1ccccc1-c1ccccc1 [compound 16, N‐(5‐([1,1'‐biphenyl]‐2‐ylmethylene)‐4‐oxo‐4,5‐dihydrothiazol‐2‐yl)naphthalene‐1‐sulfonamide] | > 150 |  |  |
| CC(=O)Nc1ccc(/C=C2\SC(NS(=O)(=O)c3cccc4ccccc34)=NC2=O)cc1 [compound 19, (Z)‐N‐(4‐((2‐(naphthalene‐1‐sulfonamido)‐4‐oxothiazol‐5(4H)‐ylidene)methyl)phenyl)acetamide] | 93 ± 2.5 |  | IC50 [1, 3]: 3.5 µM; IC50 [2, 5]: 92.7 µM |
| CC(C)(C)c1ccc(/C=C2\SC(NS(=O)(=O)c3cccc4ccccc34)=NC2=O)cc1 [compound 20, (Z)‐N‐(5‐(4‐(tert‐butyl)benzylidene)‐4‐oxo‐4,5‐dihydrothiazol‐2‐yl)naphthalene‐1‐sulfonamide] | > 150 |  |  |
| CC(C)c1ccc(/C=C2\SC(NS(=O)(=O)c3cccc4ccccc34)=NC2=O)cc1 [compound 21, (Z)‐N‐(5‐(4‐isopropylbenzylidene)‐4‐oxo‐4,5‐dihydrothiazol‐2‐yl)naphthalene‐1‐sulfonamide] | > 150 |  | IC50 [1, 3]: 4.1 µM |
| CCCc1ccc(/C=C2\SC(NS(=O)(=O)c3cccc4ccccc34)=NC2=O)cc1 [compound 22, (Z)‐N‐(4‐oxo‐5‐(4‐propylbenzylidene)‐4,5‐dihydrothiazol‐2‐yl)naphthalene‐1‐sulfonamide] | ~91 |  | IC50 [2, 5]: 91 µM |
| CCCCc1ccc(/C=C2\SC(NS(=O)(=O)c3cccc4ccccc34)=NC2=O)cc1 [compound 23, (Z)‐N‐(5‐(4‐butylbenzylidene)‐4‐oxo‐4,5‐dihydrothiazol‐2‐yl)naphthalene‐1‐sulfonamide] | ~103 |  | IC50 [2, 5]: 103 µM |
| O=C1N=C(NS(=O)(=O)c2cccc3ccccc23)S/C1=C\c1cc(O)ccc1O [compound 26, (Z)‐N‐(5‐(2,5‐dihydroxybenzylidene)‐4‐oxo‐4,5‐dihydrothiazol‐2‐yl)naphthalene‐1‐sulfonamide] |  | 70 ± 5.3 |  |
| O=C1N=C(NS(=O)(=O)c2cccc3ccccc23)S/C1=C\c1ccc(O)c(O)c1O [compound 28, (Z)‐N‐(4‐oxo‐5‐(2,3,4‐trihydroxybenzylidene)‐4,5‐dihydrothiazol‐2‐yl)naphthalene‐1‐sulfonamide] |  | 34.3 ± 3.4 |  |
| COc1cccc(/C=C2\SC(NS(=O)(=O)c3cccc4ccccc34)=NC2=O)c1OC [compound 29, (Z)‐N‐(5‐(2,3‐dimethoxybenzylidene)‐4‐oxo‐4,5‐dihydrothiazol‐2‐yl)naphthalene‐1‐sulfonamide] |  | > 100 |  |
| COc1ccc(/C=C2\SC(NS(=O)(=O)c3cccc4ccccc34)=NC2=O)cc1OC [compound 31, (Z)‐N‐(5‐(3,4‐dimethoxybenzylidene)‐4‐oxo‐4,5‐dihydrothiazol‐2‐yl)naphthalene‐1‐sulfonamide] |  | 91 | IC50 [1, 6]: 2.2 µM |
| O=C1N=C(NS(=O)(=O)c2cccc3ccccc23)S/C1=C\c1ccc(F)c(F)c1 [compound 38, (Z)‐N‐(5‐(3,4‐difluorobenzylidene)‐4‐oxo‐4,5‐dihydrothiazol‐2‐yl)naphthalene‐1‐sulfonamide] |  | > 100 |  |
| O=C1N=C(NS(=O)(=O)c2cccc3ccccc23)S/C1=C\C1CC=CCC1 (centres unmarked) [compound 39, (Z)‐N‐(5‐(cyclohex‐3‐en‐1‐ylmethylene)‐4‐oxo‐4,5‐dihydrothiazol‐2‐yl)naphthalene‐1‐sulfonamide] |  |  | IC50 [1, 8]: 4.3 µM |
| O=C1N=C(NS(=O)(=O)c2cccc3ccccc23)S/C1=C\C1CCCCC1 [compound 40, (Z)‐N‐(5‐(cyclohexylmethylene)‐4‐oxo‐4,5‐dihydrothiazol‐2‐yl)naphthalene‐1‐sulfonamide] |  |  | IC50 ([2]; Table 3, library 3, n = 1 unless otherwise stated (41, 42: n = 2), '–' = not active at 100 μM, read-out: Dynamin 1 IC50): > 100 µM |
| CCCCCCC/C=C1\SC(NS(=O)(=O)c2cccc3ccccc23)=NC1=O [compound 43, (Z)‐N‐(5‐octylidene‐4‐oxo‐4,5‐dihydrothiazol‐2‐yl)naphthalene‐1‐sulfonamide] |  |  | IC50 [1, 8]: 5.9 µM |

Now from value to compound, other results behind:

| IC50 [2, 4] [µM] | IC50 [2, 7] [µM] | Compound | other results |
| --- | --- | --- | --- |
| > 150 |  | N#Cc1ccc(/C=C2\SC(NS(=O)(=O)c3cccc4ccccc34)=NC2=O)cc1 [compound 11, (Z)‐N‐(5‐(4‐cyanobenzylidene)‐4‐oxo‐4,5‐dihydrothiazol‐2‐yl)naphthalene‐1‐sulfonamide] |  |
| > 150 |  | N#Cc1cccc(/C=C2\SC(NS(=O)(=O)c3cccc4ccccc34)=NC2=O)c1 [compound 12, (Z)‐N‐(5‐(3‐cyanobenzylidene)‐4‐oxo‐4,5‐dihydrothiazol‐2‐yl)naphthalene‐1‐sulfonamide] | IC50 [1, 3]: 5.7 µM |
| > 150 |  | O=C1N=C(NS(=O)(=O)c2cccc3ccccc23)SC1=Cc1cccc(-c2ccccc2)c1 [compound 17, N‐(5‐([1,1'‐biphenyl]‐3‐ylmethylene)‐4‐oxo‐4,5‐dihydrothiazol‐2‐yl)naphthalene‐1‐sulfonamide] | IC50 [1, 3]: 4.02 µM |
|  | 85 | O=C1N=C(NS(=O)(=O)c2cccc3ccccc23)S/C1=C\c1cccc(O)c1O [compound 24, (Z)‐N‐(5‐(2,3‐dihydroxybenzylidene)‐4‐oxo‐4,5‐dihydrothiazol‐2‐yl)naphthalene‐1‐sulfonamide] | fold less active (NTD‐PPI) than 25 and 27 ([1]; relative to 2,4‐dihydroxyphenyl 25 and 3,4‐dihydroxyphenyl 27): 3 fold; IC50 [1, 6]: 3.9 µM |
|  | 61.2 ± 7.5 | O=C1N=C(NS(=O)(=O)c2cccc3ccccc23)S/C1=C\c1ccc(O)cc1O [compound 25, (Z)‐N‐(5‐(2,4‐dihydroxybenzylidene)‐4‐oxo‐4,5‐dihydrothiazol‐2‐yl)naphthalene‐1‐sulfonamide] |  |
|  | 50.4 ± 8.4 | O=C1N=C(NS(=O)(=O)c2cccc3ccccc23)S/C1=C\c1ccc(O)c(O)c1 [compound 27, (Z)‐N‐(5‐(3,4‐dihydroxybenzylidene)‐4‐oxo‐4,5‐dihydrothiazol‐2‐yl)naphthalene‐1‐sulfonamide] |  |
|  | > 100 | COc1ccc(/C=C2\SC(NS(=O)(=O)c3cccc4ccccc34)=NC2=O)c(OC)c1 [compound 30, (Z)‐N‐(5‐(2,4‐dimethoxybenzylidene)‐4‐oxo‐4,5‐dihydrothiazol‐2‐yl)naphthalene‐1‐sulfonamide] | IC50 [1, 6]: 1 µM |
|  | > 100 | COc1cc(/C=C2\SC(NS(=O)(=O)c3cccc4ccccc34)=NC2=O)cc(OC)c1 [compound 32, (Z)‐N‐(5‐(3,5‐dimethoxybenzylidene)‐4‐oxo‐4,5‐dihydrothiazol‐2‐yl)naphthalene‐1‐sulfonamide] |  |
